# Measured values published in patent US10428082B2, “Triazole derivatives of melampomagnolide B and methods of use thereof” (BioVentures, LLC, priority 2016, dated 2019).
# Columns and labels:
# M9 ENL1 cell line = assay: Anti-leukemic activity, Annexin V/7-AAD flow cytometry; assay type: cell-based; settings: 24 h of drug exposure; read-out: M9ENL1 (EC50)
# Experimental: The newly synthesized triazole derivatives of melampomagnolide B were screened for anti-leukemic activity against M9 ENL1 and primary AML cell lines; the latter were obtained with informed consent from human patients. Evaluations were performed after 24 h of drug exposure using flow cytometric analysis by labeling with Annexin V and 7-aminoactinomycin D (7-AAD) to delineate apoptotic cell populations. In all experiments PTL was included as a reference control.
# 786-0 = assay: NCI 60 growth inhibition; assay type: cell-based, human; settings: 786-0, Renal Cancer, Table 3
# Experimental: (§1) The above triazole derivatives of melampomagnolide B were evaluated for growth inhibitory properties against an NCI panel of 60 human cancer cell lines derived from nine human cancer cell types, grouped into disease sub-panels that represent leukemia, lung, colon, central nervous system (CNS), melanoma, renal, ovary, breast, and prostate cancer cells. Growth inhibitory (GI50) effects were measured as a function of the variation of optical density as a percentage of control.
# A498 = assay: NCI 60 growth inhibition; assay type: cell-based, human; settings: A498, Renal Cancer, Table 3
# Experimental: as §1
# A549/ATCC = assay: NCI 60 growth inhibition; assay type: cell-based, human; settings: Non-Small Cell Lung Cancer, Table 3
# Experimental: as §1
# ACHN = assay: NCI 60 growth inhibition; assay type: cell-based, human; settings: Renal Cancer, Table 3
# Experimental: as §1
# BT-549 = assay: NCI 60 growth inhibition; assay type: cell-based, human; settings: BT-549, Breast Cancer, Table 3
# Experimental: as §1
# CAKI-1 = assay: NCI 60 growth inhibition; assay type: cell-based, human; settings: CAKI-1, Renal Cancer, Table 3
# Experimental: as §1
# COLO 205 = assay: NCI 60 growth inhibition; assay type: cell-based, human; settings: COLO 205, Colon Cancer, Table 3
# Experimental: as §1
# DU-145 = assay: NCI 60 growth inhibition; assay type: cell-based, human; settings: DU-145, Prostate Cancer, Table 3
# Experimental: as §1
# EKVX = assay: NCI 60 growth inhibition; assay type: cell-based, human; settings: Non-Small Cell Lung Cancer, Table 3
# Experimental: as §1
# HL-60(TB) = assay: NCI 60 growth inhibition; assay type: cell-based, human; settings: HL-60 (TB), Leukemia, Table 3
# Experimental: as §1
# HOP-62 = assay: NCI 60 growth inhibition; assay type: cell-based, human; settings: HOP-62, Non-Small Cell Lung Cancer, Table 3
# Experimental: as §1
# HOP-92 = assay: NCI 60 growth inhibition; assay type: cell-based, human; settings: HOP-92, Non-Small Cell Lung Cancer, Table 3
# Experimental: as §1
# HS 578T = assay: NCI 60 growth inhibition; assay type: cell-based, human; settings: Breast Cancer, Table 3
# Experimental: as §1
# HT29 = assay: NCI 60 growth inhibition; assay type: cell-based, human; settings: HT29, Colon Cancer, Table 3
# Experimental: as §1
# IGROV1 = assay: NCI 60 growth inhibition; assay type: cell-based, human; settings: IGROV1, Ovarian Cancer, Table 3
# Experimental: as §1
# K-562 = assay: NCI 60 growth inhibition; assay type: cell-based, human; settings: K-562, Leukemia, Table 3
# Experimental: as §1
# M14 = assay: NCI 60 growth inhibition; assay type: cell-based, human; settings: M14, Melanoma, Table 3
# Experimental: as §1
# MCF7 = assay: NCI 60 growth inhibition; assay type: cell-based, human; settings: MCF7, Breast Cancer, Table 3
# Experimental: as §1
# MDA-MB-231/ATCC = assay: NCI 60 growth inhibition; assay type: cell-based, human; settings: Breast Cancer, Table 3
# Experimental: as §1
# MDA-MB-435 = assay: NCI 60 growth inhibition; assay type: cell-based, human; settings: MDA-MB-435, Melanoma, Table 3
# Experimental: as §1
# NCI-H226 = assay: NCI 60 growth inhibition; assay type: cell-based, human; settings: NCI-H226, Non-Small Cell Lung Cancer, Table 3
# Experimental: as §1
# NCI-H23 = assay: NCI 60 growth inhibition; assay type: cell-based, human; settings: NCI-H23, Non-Small Cell Lung Cancer, Table 3
# Experimental: as §1
# NCI-H460 = assay: NCI 60 growth inhibition; assay type: cell-based, human; settings: NCI-H460, Non-Small Cell Lung Cancer, Table 3
# Experimental: as §1
# NCI-H522 = assay: NCI 60 growth inhibition; assay type: cell-based, human; settings: NCI-H522, Non-Small Cell Lung Cancer, Table 3
# Experimental: as §1
# OVCAR-3 = assay: NCI 60 growth inhibition; assay type: cell-based, human; settings: OVCAR-3, Ovarian Cancer, Table 3
# Experimental: as §1
# OVCAR-4 = assay: NCI 60 growth inhibition; assay type: cell-based, human; settings: OVCAR-4, Ovarian Cancer, Table 3
# Experimental: as §1
# RPMI-8226 = assay: NCI 60 growth inhibition; assay type: cell-based, human; settings: RPMI-8226, Leukemia, Table 3
# Experimental: as §1
# RXF 393 = assay: NCI 60 growth inhibition; assay type: cell-based, human; settings: RXF 393, Renal Cancer, Table 3
# Experimental: as §1
# SF-295 = assay: NCI 60 growth inhibition; assay type: cell-based, human; settings: SF-295, CNS Cancer, Table 3
# Experimental: as §1
# SK-MEL-28 = assay: NCI 60 growth inhibition; assay type: cell-based, human; settings: SK-MEL-28, Melanoma, Table 3
# Experimental: as §1
# SK-OV-3 = assay: NCI 60 growth inhibition; assay type: cell-based, human; settings: SK-OV-3, Ovarian Cancer, Table 3
# Experimental: as §1
# T-47D = assay: NCI 60 growth inhibition; assay type: cell-based, human; settings: Breast Cancer, Table 3
# Experimental: as §1
# U251 = assay: NCI 60 growth inhibition; assay type: cell-based, human; settings: U251, CNS Cancer, Table 3
# Experimental: as §1
# UO-31 = assay: NCI 60 growth inhibition; assay type: cell-based, human; settings: UO-31, Renal Cancer, Table 3
# Experimental: as §1
Compound,EC50 (M9 ENL1 cell line),GI50 (786-0),GI50 (A498),GI50 (A549/ATCC),GI50 (ACHN),GI50 (BT-549),GI50 (CAKI-1),GI50 (COLO 205),GI50 (DU-145),GI50 (EKVX),GI50 (HL-60(TB)),GI50 (HOP-62),GI50 (HOP-92),GI50 (HS 578T),GI50 (HT29),GI50 (IGROV1),GI50 (K-562),GI50 (M14),GI50 (MCF7),GI50 (MDA-MB-231/ATCC),other results
C=C1C(=O)O[C@H]2[C@H]1CC/C(Cn1cc(-c3ccccc3C(F)(F)F)nn1)=C\CC[C@@]1(C)O[C@@H]21 [JVM 4-59],3.9 µM,1.84 µM,3.86 µM,7.23 µM,1.45 µM,2.4 µM,1.31 µM,1.98 µM,1.42 µM,2.32 µM,2.58 µM,4.73 µM,1.48 µM,3.57 µM,1.79 µM,1.81 µM,2.4 µM,2.15 µM,1.33 µM,1.64 µM,GI50 (MDA-MB-435): 2.18 µM; GI50 (NCI-H226): 1.73 µM; GI50 (NCI-H23): 1.75 µM; GI50 (NCI-H460): 3.97 µM; GI50 (NCI-H522): 1.38 µM; GI50 (OVCAR-3): 1.04 µM; GI50 (OVCAR-4): 2.77 µM; GI50 (RPMI-8226): 1.87 µM; GI50 (RXF 393): 1.07 µM; GI50 (SF-295): 10.3 µM; GI50 (SK-MEL-28): 1.75 µM; GI50 (SK-OV-3): 17.3 µM; GI50 (T-47D): 1.7 µM; GI50 (U251): 1.83 µM; GI50 (UO-31): 1.23 µM
C=C1C(=O)O[C@H]2[C@H]1CC/C(Cn1cc(-c3ccsc3)nn1)=C\CC[C@@]1(C)O[C@@H]21 [JVM 4-53],2.7 µM,1.76 µM,2.65 µM,8.61 µM,1.32 µM,1.8 µM,1.06 µM,1.45 µM,1.43 µM,2.33 µM,1.91 µM,4.9 µM,1.66 µM,2.82 µM,1.66 µM,1.92 µM,2.51 µM,1.93 µM,1.68 µM,1.75 µM,GI50 (MDA-MB-435): 1.85 µM; GI50 (NCI-H226): 2.09 µM; GI50 (NCI-H23): 1.82 µM; GI50 (NCI-H460): 4.71 µM; GI50 (NCI-H522): 1.39 µM; GI50 (OVCAR-3): 1.06 µM; GI50 (OVCAR-4): 2.48 µM; GI50 (RPMI-8226): 2.45 µM; GI50 (RXF 393): 1.07 µM; GI50 (SF-295): 9.61 µM; GI50 (SK-MEL-28): 1.81 µM; GI50 (SK-OV-3): 17.4 µM; GI50 (T-47D): 2.03 µM; GI50 (U251): 2.5 µM; GI50 (UO-31): 1.35 µM
